# From patent US12527763B2, “Pyrrole amide compound and use thereof” (SUNSHINE LAKE PHARMA CO., LTD., priority 2019, dated 2026)
# Counter-ions that a name gives are not always drawn. Like-named read-outs stand apart in the source and are kept apart here.
# Experiments:
# [1] = Pharmacokinetic experiment in Beagle dogs; format: in vivo; settings: oral, 5.0 mg/kg; for AUC(0-inf) / Cmax / Tmax / half-life: dog, plasma
# Experimental: Beagle dogs 8-10 kg were randomly divided into two groups, and the test compound was administered orally at a dosage of 5.0 mg/kg; after administration, blood was collected at the time points of 0.0833, 0.25, 0.5, 1.0, 2.0, 4.0, 6.0, 8.0, 24.0, 32.0 and 48.0 hours. A standard curve was established within a suitable range according to the sample concentration, and AB SCIEX API4000 LC-MS/MS was used to determine the concentration of the test compounds in the plasma sample in the MRM mode. According to the drug concentration-time curve, the WinNonLin 6.3 software non-compartmental model method was used to calculate the pharmacokinetic parameters.
# [2] = Pharmacokinetic experiment in cynomolgus monkey; format: in vivo, cynomolgus monkeys; settings: oral, 3 mg/kg; for AUC(0-inf) / Cmax / Tmax / half-life: cynomolgus monkey, plasma, female cynomolgus monkeys
# Experimental: Three female cynomolgus monkeys of 3.0-3.5 kg were taken and orally administered with the test compound at a dosage of 3 mg/kg; after the administration, blood was collected at the time points of 0.083, 0.25, 0.5, 1, 2, 4, 6, 8, 24, 32 and 48 hours. A standard curve was established within an appropriate range based on the sample concentration, and AB SCIEX API 5000 LC-MS/MS was used to determine the concentration of the test compounds in the plasma sample in the MRM mode. According to the drug concentration-time curve, WinNnonlin 6.3 software non-compartmental model method was used to calculate the pharmacokinetic parameters.
# Balb/c 3T3 fibroblast = settings: PMDA Examination Report (Jan. 8, 2019); cited from earlier work
# Balb/c 3T3 cells [3] = settings: mouse, 1 h
# Experimental: (§1) Preparation of the test compound solution: The test compound was dissolved in dimethyl sulfoxide to obtain a 10 mg/mL solution, and then diluted with dimethyl sulfoxide in multiples of 2.15 times into solutions of different concentrations.
# (§2) Balb/c 3T3 cells were seeded on 96-well culture plates. After 24 hours of culture, the culture medium was discarded, different concentrations of test compounds or balanced salts (HBSS) solution containing positive control substance (chlorpromazine hydrochloride, CPZ) and vehicle control substance were added. Two culture plates of each concentration of the test compound and the positive control substance are a light (+UV) plate and a non-light (-UV) plate, respectively. After incubating for 1 hour, the light plate was placed under UVA with a light intensity of about 1.7 mw/cm2 until the light dose reached 5.0 J/cm2. The non-light plate was placed at room temperature and protected from light for the same time. After the light was over, the culture medium was replaced with fresh one and continuously cultured for 18-22 hours. About 3 hours before the culture was complete, the culture medium was replaced with a medium containing neutral red and serum-free. After incubation, neutral red eluent was added, the absorbance value (OD540) of each well at 540 nm was measured after shaking. The cell 50% inhibitory concentration (IC50), light stimulating factor (PIF) and/or average light effect (MPE) were calculated. The phototoxicity of the compound was determined according to the following criteria: PIF>5 is judged as positive for phototoxicity; 5>PIF>2 is judged as possible phototoxicity; 2>PIF is judged as no phototoxicity.
# Balb/c 3T3 cells [4] = assay: In vitro 3T3 cell neutral red uptake phototoxicity test; settings: for IC50: Mus musculus
# Experimental: as §1, §2
# [5] = target: mineralocorticoid receptor (MR) (Homo sapiens (Human), UniProt P08235); assay: In vitro activity test: MR LBD-Gal4 DBD dual luciferase reporter gene assay in HEK293 cells with aldosterone at EC80; format: cell-based; settings: antagonism of aldosterone at EC80, 18 hours
# mineralocorticoid receptor (MR), sequence (P08235 726-964, species assumed): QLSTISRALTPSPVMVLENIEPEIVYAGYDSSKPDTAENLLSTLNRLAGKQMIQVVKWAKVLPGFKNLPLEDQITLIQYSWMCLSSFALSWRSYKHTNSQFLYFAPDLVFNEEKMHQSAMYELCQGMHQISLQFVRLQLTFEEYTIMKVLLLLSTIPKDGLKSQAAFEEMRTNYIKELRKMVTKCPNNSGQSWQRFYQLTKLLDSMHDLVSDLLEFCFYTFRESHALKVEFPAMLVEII
# Text: Using the characteristics of luciferase binding to the substrate to generate a chemiluminescence reaction, the plasmid containing mineralocorticoid receptor (MR) ligand binding domain (LBD) fused with Gal4 DNA binding domain (DBD) and the firefly luciferase reporter gene plasmid under the control of Gal4 UAS (upstream activation sequence) are transfected into human embryonic kidney cells (HEK293). The changes in mineralocorticoid receptor activity before and after stimulation or the influence of different stimuli on mineralocorticoid receptor activity are judged by the level of firefly luciferase activity. At the same time, in order to reduce the impact of internal change factors on the accuracy of the experiment, the plasmid with Renilla luciferase gene is used as a control plasmid to transfect cells to provide an internal control for transcriptional activity, so that the test results are not interfered by changes in experimental conditions.
# • 1) The HEK293 cells were collected after trypsinization and the cell density was adjusted to 500,000 cells/mL; • 2) FuGENE HD transfection reagent was added to the cell suspension; • 3) The above cell suspension was inoculated into a 96-well cell culture plate of 100 μL/well, and incubated for 24 hours at 37° C., 5% CO2; • 4) A series of concentrations of the test compound solution and EC80 concentration of agonist aldosterone were added to each well and incubated for 18 hours; • 5) Firefly and Renilla luciferase signals were detected by Promega dual luciferase reporter gene test system. Result Processing: • 1) After obtaining the firefly luciferase signal (F) and the Renilla luciferase signal (R), the Renilla luciferase signal was used for correction, that is, the F/R value was used for subsequent calculation of inhibition rate; • 2)% inhibition rate=(Max−X)/(Max−Min)×100%, wherein Max is the F/R value of the positive control well, Min is the F/R value of the negative control well, and X is the test compound well of different concentrations F/R value; • 3) IC50 was calculated by GraphPrism 5.0 mapping software.
# [6] = BALB/c3T3, light or radiation study, read-out: IC50 (+UV)
# [7] = BALB/c3T3, read-out: IC50 (−UV)
compound,measurement,setting,value
"Cc1c(C(=O)Nc2ccc(S(C)(=O)=O)cc2)cn(CCO)c1-c1ccccc1C(F)(F)F (atropisomer, axis not shown) [CS-3150, Esaxerenone, reference compound]",AUC(0-inf),[1],45600 ng·h/mL
same,Cmax,[1],1580 ng/mL
same,Tmax,[1],2.33 h
same,half-life,[1],20.3 h
same,AUC(0-inf),[2],8990 ng·h/mL
same,Cmax,[2],741 ng/mL
same,Tmax,[2],1.67 h
same,half-life,[2],9.63 h
same,light stimulus factor PIF,Balb/c 3T3 fibroblast,> 17
same,phototoxicity (in words),Balb/c 3T3 fibroblast,phototoxic
"CN(C)CCCN1c2ccccc2Sc2ccc(Cl)cc21 [CPZ, chlorpromazine hydrochloride, reference compound]",MPE (average light effect),Balb/c 3T3 cells [3],0.368
same,PIF (light stimulating factor),Balb/c 3T3 cells [3],37.381
same,IC50,Balb/c 3T3 cells [4]; [6],0.982 µg/mL
same,IC50,Balb/c 3T3 cells [4]; [7],36.7 µg/mL
"Cc1c(C(=O)Nc2ccc(S(C)(=O)=O)c(F)c2)cn(CCO)c1-c1ccccc1C(F)(F)F [Example 1, N-(3-Fluoro-4-(methylsulfonyl)phenyl)-1-(2-hydroxyethyl)-4-methyl-5-(2-(trifluoromethyl)phenyl)-1H-pyrrole-3-carboxamide]",IC50,[5],6.93 nM
"Cc1c(C(=O)Nc2ccc([S@SP2](C)(=O)=O)c(F)c2)cn(CCO)c1-c1ccccc1C(F)(F)F [Example 2, (S)-1-(2-Hydroxyethyl)-4-methyl-N-(3-fluoro-4-(methylsulfonyl)phenyl)-5-(2-(trifluoromethyl)phenyl)-1H-pyrrole-3-carboxamide]",IC50,[5],3.4 nM
same,AUC(0-inf),[1],145000 ng·h/mL
same,Cmax,[1],4690 ng/mL
same,Tmax,[1],3.33 h
same,half-life,[1],25.3 h
same,pharmacokinetic properties compared with the control compound CS-3150,[1],"higher exposure, blood concentration and long half-life"
same,AUC(0-inf),[2],22000 ng·h/mL
same,Cmax,[2],1040 ng/mL
same,Tmax,[2],5.3 h
same,half-life,[2],13 h
same,pharmacokinetic properties compared to the control compound CS-3150,[2]; cynomolgus monkeys,"higher exposure, blood concentration and bioavailability"
same,MPE (average light effect),"Balb/c 3T3 cells [4]; Balb/c 3T3 cells, +UV vs −UV",−0.044
same,PIF (light stimulating factor),"Balb/c 3T3 cells [4]; Balb/c 3T3 cells, +UV vs −UV",1.289
same,IC50,Balb/c 3T3 cells [4]; [6],49.6 µg/mL
same,IC50,Balb/c 3T3 cells [4]; [7],63.8 µg/mL
same,in vitro phototoxicity (in words),Balb/c 3T3 cells [4]; conclusion from Table 6,no in vitro phototoxicity
same,Phototoxicity,Balb/c 3T3 cells [4]; judged from PIF,− (2>PIF is judged as no phototoxicity)
"Cc1c(C(=O)Nc2ccc(S(C)(=O)=O)c(F)c2)cn(CC2(O)CC2)c1-c1ccccc1C(F)(F)F [Example 3, N-(3-Fluoro-4-(methylsulfonyl)phenyl)-1-((1-hydroxycyclopropyl)methyl)-4-methyl-5-(2-(trifluoromethyl)phenyl)-1H-pyrrole-3-carboxamide]",IC50,[5],47.6 nM
"Cc1c(C(=O)Nc2ccc(S(C)(=O)=O)c(F)c2)cn(CC2CCO2)c1-c1ccccc1C(F)(F)F (stereo not shown) [Example 5, N-(3-Fluoro-4-(methylsulfonyl)phenyl)-4-methyl-1-(oxetan-2-ylmethyl)-5-(2-(trifluoromethyl)phenyl)-1H-pyrrole-3-carboxamide]",IC50,[5],21.5 nM
"Cc1c(C(=O)Nc2ccc(S(C)(=O)=O)c(F)c2)cn(C2COC2)c1-c1ccccc1C(F)(F)F [Example 6, N-(3-Fluoro-4-(methylsulfonyl)phenyl)-4-methyl-1-(oxetan-3-yl)-5-(2-(trifluoromethyl)phenyl)-1H-pyrrole-3-carboxamide]",IC50,[5],30.3 nM
"Cc1c(C(=O)Nc2ccc(S(C)(=O)=O)c(F)c2)cn(-c2cccnc2)c1-c1ccccc1C(F)(F)F [Example 7, N-(3-Fluoro-4-(methylsulfonyl)phenyl)-4-methyl-1-(pyridin-3-yl)-5-(2-(trifluoromethyl)phenyl)-1H-pyrrole-3-carboxamide]",IC50,[5],84.5 nM
"Cc1c(C(=O)Nc2cc(F)c3c(c2)sc(=O)n3C)cn(CCO)c1-c1ccccc1C(F)(F)F [Example 8, N-(4-Fluoro-3-methyl-2-oxo-2,3-dihydrobenzo[d]thiazol-6-yl)-1-(2-hydroxyethyl)-4-methyl-5-(2-(trifluoromethyl)phenyl)-1H-pyrrole-3-carboxamide]",IC50,[5],82.2 nM
